# Experimental data from patent publication US20040242565A1, “Medicinal composition for prevention of or treatment for cerebrovascular disorder and cardiopathy” (priority 2001, published 2004).
# Read-outs that look alike come from different tables or passages of the source.
# How the values were obtained:
# Assay type in all cases: in vivo
# [1] = system: Dog Delayed Cerebral Vasospasm Model; experiment: Effect on dog delayed cerebral vasospasm model (basilar artery diameter by angiography); details: seventh day, separate administration
# Description: An adult mongrel dog was anesthetized with pentobarbital and 5 ml of autologous blood was injected into cisterna magna (on the first day). On the third day, 5 ml of autologous blood was injected into cisterna magna under thiamyral anesthesia. Before the injection of autologous blood on the first day and on the seventh day, angiographin was injected into vertebral artery, followed by photographing blood vessel of basilar artery. […] As a control, physiological saline was administered into vein over 30 minutes continuously. After the administration of each drug, the blood vessel was photographed to measure the diameter of basilar artery.
# [2] = system: Vasopressin Induced Rat Angina Pectoris Model; details: half an hour before vasopressin 0.5 U/kg i.v., separate administration
# Description: Half an hour later, vasopressin (0.5 U/kg) was intravenously administered. The ST segment depression was used as an index showing the degree of a myocardial ischemia. […] ST segment in an electrocardiogram was measured for comparison with a ST segment before the vasopressin administration. […] In addition, occurrence of a myocardial ischemia was observed.
# [3] = system: Rat Cerebral Infarction Model; experiment: Inhibitory effect of cerebral infarction in rat cerebral infarction model (brain microthromboembolism); details: 10 mg/kg intraperitoneally once a day until the fourth day, separate administration
# Description: A rat brain microthromboembolism model described in Stroke, 31, 2245-2255 (2000) was used as a cerebral infarction model. […] After the model was prepared, each drug was administered once a day until the fourth day. On the fifth day, the brain was extracted and the size of a cerebral infarction was histopathologically measured.
compound,measurement,setting,value
"COCCOC(=O)C1=C(C)NC(C)=C(C(=O)OC(C)C)C1c1cccc([N+](=O)[O-])c1 (centres unmarked) [Nimodipine, nimodipine]",Basilar artery diameter (diameter before blood injection: 100%),[1]; 0.1 mg/kg into vein over 30 minutes,55.7%
same,Basilar artery diameter (diameter before blood injection: 100%),[1]; 1 mg/kg into vein over 30 minutes,58.0%
CC(C)NCC(O)COc1cccc2ccccc12 (centres unmarked) [propranolol],improvement of ST segment depression (index of myocardial ischemia),[2]; propranolol 100 mg/kg orally,not improved
O=C([O-])/C=C/c1ccc(Cn2ccnc2)cc1.[Na+] [sodium ozagrel],"inhibition of cerebral infarction (size measured histopathologically, fifth day)",[3],not inhibited
isosorbide nitrate,improvement of ST segment depression (index of myocardial ischemia),[2]; isosorbide nitrate 30 mg/kg orally,not improved
